Test results taken from paper PMC9221546, “New Phenylglycinamide Derivatives with Hybrid Structure as Candidates for New Broad-Spectrum Anticonvulsants” (Cells, 2022).
Read-outs that look alike come from different tables or passages of the source.

What was measured:
Na+ channel (site 2) = Na+ channel (site 2) radioligand binding; settings: 100 µM; rat cerebral cortex
[1] = target: T1, Calcium Cav1.2 channels (dihydropyridine site) (Homo sapiens, UniProt Q13936); assay: Calcium Cav1.2 channel binding (dihydropyridine site, antagonist radioligand); settings: 100 µM; human recombinant HEK-293 cell; read-out: % Inhibition of Control Specific Binding, Cav1.2 (dihydropyridine site)
T1 construct: host or cells: HEK-293

TRPV1 (VR1) (h) = target: T2, TRPV1 (VR1) (h) (Homo sapiens, UniProt Q8NER1); assay: TRPV1 (VR1) (h) antagonist effect functional assay; assay type: cell-based; settings: human recombinant CHO cells, read-out: % Inhibition of control agonist response, TRPV1 (antagonist effect)
T2 construct: host or cells: CHO
Description: Binding/functional studies were carried out commercially in Eurofins Laboratories (Poitiers, France) and Eurofins Panlabs Discovery Services Taiwan, Ltd. (New Taipei City, Taiwan) using testing procedures that were reported previously (for details see Table S2).
Table S2. Radioligand binding and functional assays. […]
Assays were performed commercially in Eurofins Laboratories (Poitiers, France) or Eurofins Panlabs Discovery Services Taiwan, Ltd. (New Taipei City, Taiwan).
Table S3. In vitro TRPV1 channel antagonist activity for compounds 45–66 (concentration of 100 µM). […]
Cmpd % Inhibition of control Cmpd % Inhibition of control agonist responsea agonist responsea
*Source: human recombinant CHO cells. a Results showing activity higher than 50% are considered to represent […]
variability of the sign al around the control level. Assays were performed commercially in Eurofins Laboratories

[2] = tested on: MES-induced seizures in mice; settings: i.p., pretreatment 1.0 h; cited from earlier work
[3] = tested on: MES-induced seizures in mice; assay: Maximal electroshock seizure (MES) test; assay type: in vivo; settings: for responders at 100 mg/kg / ED50: Mus musculus, ip; for responders at 100 mg/kg / protection in MES screening: 100 mg/kg i.p., 0.5 h; for responders at 100 mg/kg: read-out: MES screening: number of mice protected/number of mice tested (converted); for protection in MES screening: four mice; for ED50: mice, pretreatment time 0.5 h, (95% confidence limits)
Description: (§1) Adult male Albino Swiss mice that weighed between 22 and 26 g were used in the in vivo studies. They were housed under standardized housing conditions in colony cages and had free access to food as well as tap water. The animals were left to adapt under laboratory conditions for 7 days. All procedures involving animals and their care were performed in accordance with the current European Community and Polish legislation on animal experimentation.
(§2) In the initial screening studies, four mice per group were randomly assigned to each experimental group (each mouse was used only once). To evaluate the ED50 or TD50 values, 3–4 groups that consisted of eight animals were injected with various doses of tested compounds. The protective indexes (PIs) for the compounds that were investigated and reference ASDs were calculated by dividing the TD50 value, as determined in the chimney test (or rotarod test), by the respective ED50 value, as determined in the MES, scPTZ, or 6 Hz (32 mA or 44 mA) tests (PI = TD50/ED50). The PIs is a measure of the potential therapeutic window of the tested agent.
(§3) All substances were suspended in Tween 80 (1% aqueous solution) and administered i.p. as a single injection at a dose of 10 mL/kg. On each day of experimentation, fresh solutions were prepared. The results are summarized in Table S1 (screening data) and Table 2 (ED50, TD50, and PI values, see Section 3 Results and Discussion).
(§4) The detailed in vivo procedures are described elsewhere: the maximal electroshock seizure test (MES), the subcutaneous pentylenetetrazole seizure test (scPTZ), the 6 Hz psychomotor seizure model (32 mA and 44 mA), and the chimney test.
(§5) The basic animal seizure models such as the MES, 6 Hz (32 mA or 44 mA), and the scPTZ are still a standard in the discovery and development of new ASDs. In vivo screening approaches enable the identification of compounds with unidentified and potentially novel mechanisms of action besides substances with well-established pharmacodynamics. Bearing in mind the aforementioned facts, compounds 45–66 were initially studied in the MES test and in the 6 Hz seizure model (32 mA) after intraperitoneal (i.p.) administration at a screening dose of 100 mg/kg in mice at a time point of 0.5 h (the screening group consisted of four mice, the results obtained are summarized in Table S1). It should be stressed that the MES test is an experimental model of human tonic–clonic epilepsy as well as partial convulsions with or without secondary generalization, the 6 Hz model (32 mA) corresponds to human focal epilepsy, whereas the scPTZ test relates to human generalized absence or myoclonic seizures.
(§6) We also established the median toxic doses (TD50) in the chimney test 0.5 h post i.p. administration of these compounds. Both the aforementioned parameters enabled the calculation of the protective indexes (PIs).

[4] = tested on: 6 Hz (32 mA) seizures in mice; assay: 6 Hz (32 mA) psychomotor seizure model; assay type: in vivo; settings: Mus musculus, ip; for responders at 100 mg/kg: 100 mg/kg i.p., 0.5 h; for ED50: mice, pretreatment time 0.5 h, (95% confidence limits)
Description: as §1, §2, §3, §4, §5, §6

[5] = tested on: scPTZ-induced seizures in mice; assay: Subcutaneous pentylenetetrazole (scPTZ) seizure test; assay type: in vivo; settings: 100 mg/kg i.p., 0.5 h
Description: as §1, §2, §3, §4, §5

[6] = four mice, read-out: protection in 6 Hz (32 mA) screening
[7] = read-out: 6 Hz (32 mA) screening: number of mice protected/number of mice tested (converted)

T2 sequence (Q8NER1 whole entry): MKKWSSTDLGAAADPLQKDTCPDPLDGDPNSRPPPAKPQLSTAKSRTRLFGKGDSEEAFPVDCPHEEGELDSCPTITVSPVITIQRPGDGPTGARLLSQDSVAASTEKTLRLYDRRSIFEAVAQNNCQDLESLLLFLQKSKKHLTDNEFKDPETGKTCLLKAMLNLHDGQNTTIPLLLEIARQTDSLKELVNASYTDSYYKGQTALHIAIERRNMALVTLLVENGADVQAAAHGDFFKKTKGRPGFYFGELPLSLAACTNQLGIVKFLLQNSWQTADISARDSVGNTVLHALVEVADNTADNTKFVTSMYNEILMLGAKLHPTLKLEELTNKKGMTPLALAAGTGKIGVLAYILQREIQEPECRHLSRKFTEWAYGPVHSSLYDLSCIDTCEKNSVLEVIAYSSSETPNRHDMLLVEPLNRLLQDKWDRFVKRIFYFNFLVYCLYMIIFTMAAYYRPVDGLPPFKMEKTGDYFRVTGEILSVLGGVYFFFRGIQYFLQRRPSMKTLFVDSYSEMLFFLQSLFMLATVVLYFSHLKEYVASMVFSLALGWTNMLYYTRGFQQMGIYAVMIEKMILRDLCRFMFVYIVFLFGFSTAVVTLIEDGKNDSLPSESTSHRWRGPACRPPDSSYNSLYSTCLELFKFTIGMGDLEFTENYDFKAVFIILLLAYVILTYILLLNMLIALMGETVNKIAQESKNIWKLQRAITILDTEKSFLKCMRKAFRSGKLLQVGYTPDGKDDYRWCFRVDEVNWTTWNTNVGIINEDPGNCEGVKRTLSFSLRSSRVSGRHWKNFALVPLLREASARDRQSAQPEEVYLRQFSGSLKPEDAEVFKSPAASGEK
T1 sequence (Q13936 whole entry): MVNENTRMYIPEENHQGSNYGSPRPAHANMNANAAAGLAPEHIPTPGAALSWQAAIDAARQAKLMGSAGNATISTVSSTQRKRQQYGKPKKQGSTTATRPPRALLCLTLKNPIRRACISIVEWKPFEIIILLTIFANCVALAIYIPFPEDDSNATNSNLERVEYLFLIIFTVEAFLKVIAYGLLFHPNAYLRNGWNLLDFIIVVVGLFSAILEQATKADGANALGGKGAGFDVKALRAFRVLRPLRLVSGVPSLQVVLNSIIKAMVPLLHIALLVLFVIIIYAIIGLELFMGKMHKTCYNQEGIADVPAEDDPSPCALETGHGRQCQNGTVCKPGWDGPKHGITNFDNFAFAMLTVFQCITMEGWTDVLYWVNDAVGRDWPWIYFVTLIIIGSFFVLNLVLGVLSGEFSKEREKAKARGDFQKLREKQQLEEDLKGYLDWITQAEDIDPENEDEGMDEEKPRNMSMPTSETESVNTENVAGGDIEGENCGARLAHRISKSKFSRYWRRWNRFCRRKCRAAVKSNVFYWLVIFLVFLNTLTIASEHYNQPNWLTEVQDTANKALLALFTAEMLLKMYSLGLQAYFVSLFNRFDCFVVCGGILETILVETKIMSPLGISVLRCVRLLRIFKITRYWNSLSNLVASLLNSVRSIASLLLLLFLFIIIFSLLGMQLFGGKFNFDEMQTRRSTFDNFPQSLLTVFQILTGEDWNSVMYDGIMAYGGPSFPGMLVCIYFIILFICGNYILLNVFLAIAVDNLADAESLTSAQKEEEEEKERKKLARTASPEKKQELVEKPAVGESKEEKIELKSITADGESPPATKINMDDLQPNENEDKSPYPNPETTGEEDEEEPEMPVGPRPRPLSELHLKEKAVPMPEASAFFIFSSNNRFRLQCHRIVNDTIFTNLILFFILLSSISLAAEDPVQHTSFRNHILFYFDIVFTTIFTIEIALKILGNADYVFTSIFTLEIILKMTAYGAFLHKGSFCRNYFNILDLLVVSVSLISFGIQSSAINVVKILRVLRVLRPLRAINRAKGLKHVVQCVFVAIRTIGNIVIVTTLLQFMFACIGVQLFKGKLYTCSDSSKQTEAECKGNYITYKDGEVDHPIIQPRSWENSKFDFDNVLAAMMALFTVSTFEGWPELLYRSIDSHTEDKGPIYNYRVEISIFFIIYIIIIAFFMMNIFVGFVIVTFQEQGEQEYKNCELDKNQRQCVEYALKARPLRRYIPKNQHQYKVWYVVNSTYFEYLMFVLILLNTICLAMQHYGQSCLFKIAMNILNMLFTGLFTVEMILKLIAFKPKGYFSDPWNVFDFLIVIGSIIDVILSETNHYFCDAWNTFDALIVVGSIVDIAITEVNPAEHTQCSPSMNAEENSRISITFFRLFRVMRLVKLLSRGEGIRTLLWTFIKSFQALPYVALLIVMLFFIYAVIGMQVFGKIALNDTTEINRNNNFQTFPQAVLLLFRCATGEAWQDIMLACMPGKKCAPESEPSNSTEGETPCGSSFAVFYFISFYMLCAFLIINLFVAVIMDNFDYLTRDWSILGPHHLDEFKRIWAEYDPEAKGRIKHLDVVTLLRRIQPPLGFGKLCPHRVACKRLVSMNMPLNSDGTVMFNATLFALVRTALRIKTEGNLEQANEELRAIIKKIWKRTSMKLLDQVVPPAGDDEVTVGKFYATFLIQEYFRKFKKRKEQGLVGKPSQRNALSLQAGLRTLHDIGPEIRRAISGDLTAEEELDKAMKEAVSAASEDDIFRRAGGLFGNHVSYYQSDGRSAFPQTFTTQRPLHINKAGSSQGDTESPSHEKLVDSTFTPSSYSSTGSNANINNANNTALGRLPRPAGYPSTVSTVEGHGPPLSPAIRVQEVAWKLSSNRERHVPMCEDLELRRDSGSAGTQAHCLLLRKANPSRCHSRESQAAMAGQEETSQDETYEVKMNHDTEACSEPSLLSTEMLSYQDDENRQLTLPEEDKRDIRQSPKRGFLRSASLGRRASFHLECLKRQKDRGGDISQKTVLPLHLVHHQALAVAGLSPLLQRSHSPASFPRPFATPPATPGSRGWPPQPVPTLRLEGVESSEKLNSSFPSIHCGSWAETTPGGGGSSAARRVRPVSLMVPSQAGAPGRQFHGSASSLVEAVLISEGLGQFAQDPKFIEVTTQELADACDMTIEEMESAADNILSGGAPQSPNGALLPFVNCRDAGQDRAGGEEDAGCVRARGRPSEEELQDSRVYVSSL
T1 sequence (Q08289 whole entry partner): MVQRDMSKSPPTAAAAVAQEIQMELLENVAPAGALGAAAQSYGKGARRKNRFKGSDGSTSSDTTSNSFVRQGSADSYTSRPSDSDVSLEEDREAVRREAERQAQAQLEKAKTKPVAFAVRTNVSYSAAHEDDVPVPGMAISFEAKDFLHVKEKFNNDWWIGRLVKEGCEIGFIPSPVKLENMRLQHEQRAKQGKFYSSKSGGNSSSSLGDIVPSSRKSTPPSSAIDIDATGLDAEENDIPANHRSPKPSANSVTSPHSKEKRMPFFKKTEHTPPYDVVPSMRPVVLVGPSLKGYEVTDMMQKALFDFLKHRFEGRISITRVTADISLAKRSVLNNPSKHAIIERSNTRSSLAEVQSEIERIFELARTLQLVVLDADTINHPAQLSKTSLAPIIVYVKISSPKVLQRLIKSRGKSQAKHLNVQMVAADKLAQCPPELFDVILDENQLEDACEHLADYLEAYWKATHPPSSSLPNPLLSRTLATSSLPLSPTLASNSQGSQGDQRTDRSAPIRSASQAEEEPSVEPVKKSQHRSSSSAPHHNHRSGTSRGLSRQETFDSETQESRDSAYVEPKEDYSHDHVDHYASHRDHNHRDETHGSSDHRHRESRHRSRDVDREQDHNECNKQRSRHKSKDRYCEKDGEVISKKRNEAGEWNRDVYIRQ
T1 sequence (P54289 25-956 partner limits assumed): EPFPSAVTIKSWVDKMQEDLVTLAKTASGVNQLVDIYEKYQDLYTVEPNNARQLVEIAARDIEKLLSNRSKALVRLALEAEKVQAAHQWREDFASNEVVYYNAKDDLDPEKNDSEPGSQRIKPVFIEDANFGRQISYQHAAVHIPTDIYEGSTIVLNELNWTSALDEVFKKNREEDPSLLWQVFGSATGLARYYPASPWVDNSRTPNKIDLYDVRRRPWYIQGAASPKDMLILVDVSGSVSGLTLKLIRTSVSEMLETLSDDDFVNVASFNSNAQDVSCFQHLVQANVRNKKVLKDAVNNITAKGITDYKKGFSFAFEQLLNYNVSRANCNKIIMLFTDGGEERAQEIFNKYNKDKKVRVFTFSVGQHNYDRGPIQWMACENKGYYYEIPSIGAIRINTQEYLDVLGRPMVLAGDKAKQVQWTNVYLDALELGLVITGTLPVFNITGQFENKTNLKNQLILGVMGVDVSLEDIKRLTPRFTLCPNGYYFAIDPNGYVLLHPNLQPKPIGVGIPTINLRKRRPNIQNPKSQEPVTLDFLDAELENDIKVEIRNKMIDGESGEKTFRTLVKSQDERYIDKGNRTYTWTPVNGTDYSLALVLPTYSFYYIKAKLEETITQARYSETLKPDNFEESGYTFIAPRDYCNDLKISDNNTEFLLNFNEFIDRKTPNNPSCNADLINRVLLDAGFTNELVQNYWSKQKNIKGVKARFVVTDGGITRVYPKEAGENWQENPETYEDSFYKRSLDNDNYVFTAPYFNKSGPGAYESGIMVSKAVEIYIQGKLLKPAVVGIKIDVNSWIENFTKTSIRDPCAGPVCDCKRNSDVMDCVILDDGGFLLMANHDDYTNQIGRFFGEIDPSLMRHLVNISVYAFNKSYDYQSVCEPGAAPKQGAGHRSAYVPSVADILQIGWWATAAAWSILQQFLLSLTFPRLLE
T1 sequence (P54289 957-1103 partner limits assumed): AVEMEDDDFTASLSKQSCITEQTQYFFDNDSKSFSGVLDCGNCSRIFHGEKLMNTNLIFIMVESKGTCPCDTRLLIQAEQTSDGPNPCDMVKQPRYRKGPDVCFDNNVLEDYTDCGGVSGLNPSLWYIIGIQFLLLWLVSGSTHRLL

Compound | inhibition at 100 µM (TRPV1 (VR1) (h)) [%] | responders at 100 mg/kg [3] [%] | responders at 100 mg/kg [4, 6] [%] | responders at 100 mg/kg [4, 7] [%] | melting point [°C] | further results
C=C(C)[C@@H]1CCC(C)=C[C@H]1c1c(O)cc(CCCCC)cc1O [CBD, cannabidiol, reference compound] | 48 |  |  |  |  | % Inhibition of Control Specific Binding, Na+ channel (site 2) (Na+ channel (site 2)): 94.8 (100) %; inhibition at 100 µM [1]: 58%; ED50 MES [2]: 80.0 (65.5−96.0) mg/kg
CC(=O)NC(C(=O)N1CCN(c2ccccc2Cl)CC1)c1ccccc1 (centres unmarked) [Compound 46, N-(2-(4-(2-chlorophenyl)piperazin-1-yl)-2-oxo-1-phenylethyl)acetamide] | 116 | 0 | 50 | 50 |  | 
CC(=O)NC(C(=O)N1CCN(c2ccc(Cl)cc2)CC1)c1ccccc1 (centres unmarked) [Compound 48, N-(2-(4-(4-chlorophenyl)piperazin-1-yl)-2-oxo-1-phenylethyl)acetamide] | 127 | 25 | 75 | 75 | 133.3 to 134.6 | protection in MES screening [3]: 25%; ED50 [3]: > 150 mg/kg; ED50 [4]: 60.1 mg/kg
CC(=O)NC(C(=O)N1CCN(c2ccc(Cl)c(Cl)c2)CC1)c1ccccc1 (centres unmarked) [Compound 49, N-(2-(4-(3,4-dichlorophenyl)piperazin-1-yl)-2-oxo-1-phenylethyl)acetamide] | 135 | 0 |  | 25 |  | 
CC(=O)NC(C(=O)N1CCN(c2cc(Cl)cc(Cl)c2)CC1)c1ccccc1 (centres unmarked) [Compound 50, N-(2-(4-(3,5-dichlorophenyl)piperazin-1-yl)-2-oxo-1-phenylethyl)acetamide] | 128 | 0 |  | 25 | 185.9 to 187.3 | 
CC(=O)NC(C(=O)N1CCN(c2cc(Cl)cc(C(F)(F)F)c2)CC1)c1ccccc1 (centres unmarked) [Compound 51, N-(2-(4-(3-chloro-5-(trifluoromethyl)phenyl)piperazin-1-yl)-2-oxo-1-phenylethyl) acetamide] | -2.5 | 0 |  | 25 |  | 
CC(=O)NC(C(=O)N1CCN(c2ccccc2C(F)(F)F)CC1)c1ccccc1 (centres unmarked) [Compound 52, N-(2-oxo-1-phenyl-2-(4-(2-(trifluoromethyl)phenyl)piperazin-1-yl)ethyl)acetamide] | 90.9 | 0 | 50 | 50 |  | 
CC(=O)NC(C(=O)N1CCN(c2ccc(C(F)(F)F)cc2)CC1)c1ccccc1 (centres unmarked) [Compound 54, N-(2-oxo-1-phenyl-2-(4-(4-(trifluoromethyl)phenyl)piperazin-1-yl)ethyl)acetamide] | 128 | 0 | 50 | 50 |  | 
CC(=O)NC(C(=O)N1CCN(c2cc(C(F)(F)F)cc(C(F)(F)F)c2)CC1)c1ccccc1 (centres unmarked) [Compound 55, N-(2-(4-(3,5-bis(trifluoromethyl)phenyl)piperazin-1-yl)-2-oxo-1-phenylethyl)acetamide] | -14 | 0 |  | 25 | 194.2 to 195.4 | 
CC(=O)NC(C(=O)N1CCN(c2cccc(C)c2)CC1)c1ccccc1 (centres unmarked) [Compound 56, N-(2-oxo-1-phenyl-2-(4-(m-tolyl)piperazin-1-yl)ethyl)acetamide] | 57.4 | 0 |  | 25 |  | 
CC(=O)NC(C(=O)N1CCN(c2cccc(C(F)F)c2)CC1)c1ccccc1 (centres unmarked) [Compound 57, N-(2-(4-(3-(difluoromethyl)phenyl)piperazin-1-yl)-2-oxo-1-phenylethyl)acetamide] | 43.7 | 0 |  | 25 |  | 
CC(=O)NC(C(=O)N1CCN(c2cccc(-c3ccccc3)c2)CC1)c1ccccc1 (centres unmarked) [Compound 58, N-(2-(4-([1,1’-biphenyl]-3-yl)piperazin-1-yl)-2-oxo-1-phenylethyl)acetamide] | 92 | 0 | 50 | 50 |  | 
COc1cccc(N2CCN(C(=O)C(NC(C)=O)c3ccccc3)CC2)c1 (centres unmarked) [Compound 59, N-(2-(4-(3-methoxyphenyl)piperazin-1-yl)-2-oxo-1-phenylethyl)acetamide] | 20.1 | 0 |  |  |  | 
CC(=O)NC(C(=O)N1CCN(c2cccc(Oc3ccccc3)c2)CC1)c1ccccc1 (centres unmarked) [Compound 61, N-(2-oxo-2-(4-(3-phenoxyphenyl)piperazin-1-yl)-1-phenylethyl)acetamide] | 52.5 | 0 |  | 25 |  | 
CC(=O)NC(C(=O)N1CCN(c2ncccc2C(F)(F)F)CC1)c1ccccc1 (centres unmarked) [Compound 63, N-(2-oxo-1-phenyl-2-(4-(3-(trifluoromethyl)pyridine-2-yl)piperazin-1-yl)ethyl)acetamide] | -2.8 | 0 |  |  | 147.8 to 148.9 | 
CC(=O)NC(C(=O)N1CCN(c2cc(C(F)(F)F)ccn2)CC1)c1ccccc1 (centres unmarked) [Compound 64, N-(2-oxo-1-phenyl-2-(4-(4-(trifluoromethyl)pyridine-2-yl)piperazin-1-yl)ethyl)acetamide] | 39.7 | 0 |  | 25 | 91.4 to 92.3 | 
CC(=O)NC(C(=O)N1CCN(c2ccc(C(F)(F)F)cn2)CC1)c1ccccc1 (centres unmarked) [Compound 65, N-(2-oxo-1-phenyl-2-(4-(5-(trifluoromethyl)pyridine-2-yl)piperazin-1-yl)ethyl)acetamide] | 8.5 | 75 | 75 | 75 | 91.2 to 92.4 | protection in MES screening [3]: 75%; ED50 [3]: > 100 mg/kg; ED50 [4]: 64.9 mg/kg; scPTZ screening: number of mice protected/number of mice tested [5]: 0/4
CC(=O)NC(C(=O)N1CCN(c2cccc(C(F)(F)F)n2)CC1)c1ccccc1 (centres unmarked) [Compound 66, N-(2-oxo-1-phenyl-2-(4-(6-(trifluoromethyl)pyridine-2-yl)piperazin-1-yl)ethyl)acetamide] | 3.7 | 0 | 50 | 50 | 151.6 to 152.3 | 
